Results reported in US7511145B2 (Genelabs Technologies, Inc., priority 2003, dated 2009).

Target: T1, HCV-NS5b (Hepatitis C virus genotype 1b, UniProt Q9WMX2)
T1 construct: (His)6 (C); made in house; host or cells: XL-1 cells (E. coli), IPTG-inducible plasmid, nickel-NTA purification
Assay: HCV-NS5b enzyme assay (incorporation of radiolabeled UTP)
Assay type: biochemical
Settings: for inhibition at 33 µM: enzyme inhibition at compound concentration of 33 uM; for inhibition at 100 µM: read-out: % inh@100, enzyme inhibition at compound concentration of 100 uM
From the text: The coding sequence of NS5b protein was cloned by PCR from pFKI389luc/NS3-3′/ET as described by Lohmann, V., et al. (1999) Science 285, 110-113 using the following primers: […]
The cloned fragment was missing the C terminus 21 amino acid residues. The cloned fragment was inserted into an IPTG-inducible expression plasmid that provided an epitope tag (His)6 at the carboxy terminus of the protein.
The recombinant enzyme was expressed in XL-1 cells and after induction of expression, the protein was purified using affinity chromatography on a nickel-NTA column. Storage condition was 10 mM Tris-HCl pH 7.5, 50 mM NaCl, 0.1 mM EDTA, 1 mM DTT, 20% glycerol at −20° C.
The polymerase activity was assayed by measuring incorporation of radiolabeled UTP into a RNA product using a biotinylated, heteropolymeric template, which included a portion of the HCV genome. Typically, the assay mixture (50 μL) contained 10 mM Tris-HCl (pH 7.5), 5 mM MgCl2, 0.2 mM EDTA, 10 mM KCl, 1 unit/μL RNAsin, 1 mM DTT, 10 μM each of NTP, including [^3H]-UTP, and 10 ng/μL heteropolymeric template. Test compounds were initially dissolved in 100% DMSO and further diluted in aqueous buffer containing 5% DMSO. Typically, compounds were tested at concentrations between 1 nM and 100 μM. Reactions were started with addition of enzyme and allowed to continue at 37° C. for 2 hours. Reactions were quenched with 8 μL of 100 mM EDTA and reaction mixtures (30 μL) were transferred to streptavidin-coated scintillation proximity microtiter plates (FlashPlates) and incubated at 4° C. overnight. Incorporation of radioactivity was determined by scintillation counting.
Shown in Table IX below are the values for enzyme inhibition measured at compound concentrations of 100 and 33 uM, (% inh@[…] and % inh@33, respectively). The percent inhibition values are calculated from the differential incorporation of radioactivity compared to a control reaction without compound: % inhibition=100−[(CountsINH−CountsBKG)/CountsCTRL−CountsBKG)×100 where CountsINH is the signal of the testwell with inhibitor, CountsBKG is the background signal and CountsCTRL is the signal of a testwell without inhibitor.

Row | Compound | inhibition at 33 µM [%] | inhibition at 100 µM [%]
1 | O=C(O)c1ccc2c(c1)nc(-c1ccc3ncc(-c4ccccc4)nc3c1)n2C1CCCCC1 [Compound 205, 1-Cyclohexyl-2-(3-phenyl-quinoxalin-6-yl)-1H-benzoimidazole-5-carboxylic acid] | 84.4 | 99
2 | CN(C)CCNC(=O)c1ccc(-c2ccc(Cl)cc2)c(-c2ccc3cc(-c4nc5cc(C(=O)O)ccc5n4C4CCCCC4)ccc3n2)c1 [Compound 491, 2-{2-[4′-Chloro-4-(2-dimethylamino-ethylcarbamoyl)-biphen-2-yl]-quinolin-6-yl}-1-cyclohexyl-1H-benzoimidazole-5-carboxylic acid] | 98.3 | 100
3 | O=C(O)c1ccc2c(c1)nc(-c1ccc3nc(-c4ccc(-n5ccnc5)cc4)ccc3c1)n2C1CCCCC1 [Compound 473, 1-cyclohexyl-2-[2-(4-imidazol-1-yl-phenyl)-quinolin-6-yl]-1H-benzoimidazole-5-carboxylic acid] | 99.2 | 97.4
4 | COc1ccc(-c2ccc(Cl)cc2)c(-c2ccc3cc(-c4nc5cc(C(=O)O)ccc5n4Cc4ccccc4)ccc3n2)c1 [Compound 559, 1-Benzyl-2-[2-(4′-chloro-4-methoxy-biphen-2-yl)-quinolin-6-yl]-1H-benzoimidazole-5-carboxylic acid] | 101 | 101
5 | O=C(O)c1ccc2c(c1)nc(-c1ccc3nc(-c4ccncc4)ccc3c1)n2C1CCCCC1 [Compound 443, 1-cyclohexyl-2-(2-pyridin-4-yl-quinolin-6-yl)-1H-benzoimidazole-5-carboxylic acid] | 87 | 98.7
6 | CC(C)[C@H](NC(=O)c1ccc2c(c1)nc(-c1ccc3nc(-c4ccccc4)cnc3c1)n2C1CCCCC1)C(=O)O [Compound 517, 2-{[1-Cyclohexyl-2-(2-phenyl-quinoxalin-6-yl)-1H-benzoimidazole-5-carbonyl]-amino}-3-methyl-butyric acid] | 81 | 97.8
7 | O=C(O)c1ccc2c(c1)nc(-c1ccc3nc(-c4ccccc4)cc(Oc4ccccc4)c3c1)n2C1CCCCC1 [Compound 496, 1-cyclohexyl-2-(4-phenoxy-2-phenyl-quinolin-6-yl)-1H-benzoimidazole-5-carboxylic acid] | 101 | 101
8 | COc1ccc(-c2ccc(Cl)cc2)c(-c2ccc3cc(-c4nc5cc(C(=O)O)ccc5n4C4CCC(C)CC4)ccc3n2)c1 (stereo not shown) [Compound 543, 2-[2-(4′-chloro-4-methoxy-biphen-2-yl)-quinolin-6-yl]-1-(4-methyl-cyclohexyl)-1H-benzoimidazole-5-carboxylic acid] | 102 | 102
9 | O=C(O)c1ccc2c(c1)nc(-c1ccc3nc(-c4ccccc4)cnc3c1)n2C1CCCCC1 [Compound 203, 1-Cyclohexyl-2-(2-phenyl-quinoxalin-6-yl)-1H-benzoimidazole-5-carboxylic acid] | 75 | 97.5
10 | COc1ccc(-c2cccc(Cl)c2)c(-c2ccc3cc(-c4nc5cc(C(=O)O)ccc5n4C4CCCCC4)ccc3n2)c1 [Compound 422, 2-[2-(3′-chloro-4-methoxy-biphen-2-yl)-quinolin-6-yl]-1-cyclohexyl-1H-benzoimidazole-5-carboxylic acid] | 98.8 | 99.2
11 | Cc1nc(N)sc1-c1ccc2cc(-c3nc4cc(C(=O)O)ccc4n3C3CCCCC3)ccc2n1 [Compound 391] | 94.1 | 97.5
12 | O=C(O)c1ccc(-c2ccc(Cl)cc2)c(-c2ccc3cc(-c4nc5cc(C(=O)O)ccc5n4C4CCCCC4)ccc3n2)c1 [Compound 415, 2-[2-(4-Carboxy-4′-chloro-biphen-2-yl)-quinolin-6-yl]-1-cyclohexyl-1H-benzoimidazole-5-carboxylic acid] | 101 | 102
13 | O=C(O)c1ccc2c(c1)nc(-c1ccc3nc(-c4ccc5c(c4)CCO5)ccc3c1)n2C1CCCCC1 [Compound 478, 1-cyclohexyl-2-[2-(2,3-dihydro-benzofuran-5-yl)-quinolin-6-yl]-1H-benzoimidazole-5-carboxylic acid] | 95.8 | 97.2
14 | COc1cccc(-c2ccc3cc(-c4nc5cc(C(=O)O)ccc5n4C4CCCCC4)ccc3n2)c1 [Compound 486, 1-Cyclohexyl-2-[2-(3-methoxy-phenyl)-quinolin-6-yl]-1H-benzoimidazole-5-carboxylic acid] | 93.5 | 97.9
15 | CCCN(CCC)Cc1ccc2cc(-c3nc4cc(C(=O)O)ccc4n3C3CCCCC3)ccc2n1 [Compound 489, 1-cyclohexyl-2-(2-dipropylaminomethyl-quinolin-6-yl)-1H-benzoimidazole-5-carboxylic acid] | 87 | 96
16 | Nc1c(Cl)cc(-c2ccc3cc(-c4nc5cc(C(=O)O)ccc5n4C4CCCCC4)ccc3n2)cc1Cl [Compound 363, 2-[2-(4-amino-3,5-dichloro-phenyl)-quinolin-6-yl]-1-cyclohexyl-1H-benzoimidazole-5-carboxylic acid] | 98.4 | 101
17 | COc1ccc(-c2ccc(F)c(F)c2)c(-c2ccc3cc(-c4nc5cc(C(=O)O)ccc5n4C4CCCCC4)ccc3n2)c1 [Compound 560, 1-Cyclohexyl-2-[2-(3′,4′-difluoro-4-methoxy-biphen-2-yl)-quinolin-6-yl]-1H-benzoimidazole-5-carboxylic acid] | 101 | 101
18 | O=C(O)c1ccc2c(c1)nc(-c1ccc3nc(-c4cc(-c5ccc(Cl)c(Cl)c5)no4)ccc3c1)n2C1CCCCC1 [Compound 479, 1-cyclohexyl-2-{2-[3-(3,4-dichloro-phenyl)-isoxazol-5-yl]-quinolin-6-yl}-1H-benzoimidazole-5-carboxylic acid] | 99.6 | 102
19 | O=C(O)c1ccc2[nH]c(-c3ccc4nc(-c5ccccc5-c5ccc(Cl)cc5)ccc4c3)nc2c1 [Compound 353, 2-[2-(4′-Chloro-biphen-2-yl)-quinolin-6-yl]-1H-benzoimidazole-5-carboxylic acid] | 67.3 | 67.5
20 | O=C(O)c1ccc2c(c1)nc(-c1ccc3nc(-c4ccccc4)cc(Nc4ccccc4)c3c1)n2C1CCCCC1 [Compound 433, 1-cyclohexyl-2-(2-phenyl-4-phenylamino-quinolin-6-yl)-1H-benzoimidazole-5-carboxylic acid] | 92.5 | 100
21 | O=C(O)c1ccc2c(c1)nc(-c1ccc3nc(-c4cc5ccccc5o4)ccc3c1)n2C1CCCCC1 [Compound 413, 2-(2-benzofuran-2-yl-quinolin-6-yl)-1-cyclohexyl-1H-benzoimidazole-5-carboxylic acid] | 95.5 | 100
22 | O=C(O)c1ccc2c(c1)nc(-c1ccc3nc(-c4ccccc4-c4ccc(Cl)cc4)c(-c4ccccc4)cc3c1)n2C1CCCCC1 [Compound 440, 2-[2-(4′-Chloro-biphen-2-yl)-3-phenyl-quinolin-6-yl]-1-cyclohexyl-1H-benzoimidazole-5-carboxylic acid] | 99.2 | 97.8
23 | O=C(N[C@H](C(=O)O)C1CCCCC1)c1ccc2c(c1)nc(-c1ccc3nc(-c4ccccc4)cnc3c1)n2C1CCCCC1 [Compound 243, Cyclohexyl-{[1-cyclohexyl-2-(2-phenyl-quinoxalin-6-yl)-1H-benzoimidazole-5-carbonyl]-amino}-acetic acid] | 96 | 98.1
24 | O=C(N[C@@H](Cc1c[nH]cn1)C(=O)O)c1ccc2c(c1)nc(-c1ccc3nc(-c4ccccc4)cnc3c1)n2C1CCCCC1 [Compound 247, 2-{[1-Cyclohexyl-2-(2-phenyl-quinoxalin-6-yl)-1H-benzoimidazole-5-carbonyl]-amino}-3-(1H-imidazol-4-yl)-propionic acid] | 66.8 | 94.2
25 | O=C(O)CCNC(=O)c1ccc2c(c1)nc(-c1ccc3nc(-c4ccccc4)cnc3c1)n2C1CCCCC1 [Compound 239, 3-{[1-Cyclohexyl-2-(2-phenyl-quinoxalin-6-yl)-1H-benzoimidazole-5-carbonyl]-amino}-propionic acid] | 49.1 | 70.2
26 | NCCCC[C@H](NC(=O)c1ccc2c(c1)nc(-c1ccc3nc(-c4ccccc4)ccc3c1)n2C1CCCCC1)C(=O)O [Compound 232, 6-Amino-2-{[1-cyclohexyl-2-(2-phenyl-quinolin-6-yl)-1H-benzoimidazole-5-carbonyl]-amino}-hexanoic acid] | 60.5 | 80.2
